Legend:
[1] = Cmax in Wistar rat at 5 mg/kg, po; format: ADME, organism-based; parameters: dose 5 mg/kg, route oral; settings: in vivo
[2] = Plasma concentration in Wistar rat plasma at 5 mg/kg, po after 2 hrs; format: ADME, organism-based; parameters: dose 5 mg/kg, route oral
[3] = biological target: T1, Cytochrome P450 11B2, mitochondrial (Homo sapiens, UniProt P19099)
T1 sequence (P19099 whole entry): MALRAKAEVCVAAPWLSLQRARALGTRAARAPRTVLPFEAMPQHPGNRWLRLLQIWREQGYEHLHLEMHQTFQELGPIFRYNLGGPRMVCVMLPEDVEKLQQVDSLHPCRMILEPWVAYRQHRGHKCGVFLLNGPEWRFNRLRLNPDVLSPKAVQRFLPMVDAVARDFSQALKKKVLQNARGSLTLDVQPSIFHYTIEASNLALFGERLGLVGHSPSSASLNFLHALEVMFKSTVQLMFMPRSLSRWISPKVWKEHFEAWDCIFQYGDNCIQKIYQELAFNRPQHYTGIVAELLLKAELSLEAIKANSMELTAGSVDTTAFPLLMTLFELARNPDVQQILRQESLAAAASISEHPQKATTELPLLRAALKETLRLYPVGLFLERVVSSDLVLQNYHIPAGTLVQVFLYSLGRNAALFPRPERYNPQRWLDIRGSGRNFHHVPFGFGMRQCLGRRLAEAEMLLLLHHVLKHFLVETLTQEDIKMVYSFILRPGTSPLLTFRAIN

[4] = Plasma concentration in Wistar rat plasma at 5 mg/kg, po after 24 hrs; format: ADME, organism-based; parameters: dose 5 mg/kg, route oral
[5] = biological target: T2, CYP17 (Homo sapiens, UniProt P05093); test: Inhibition of human recombinant CYP17 expressed in Escherichia coli at 2 uM
T2 sequence (P05093 whole entry): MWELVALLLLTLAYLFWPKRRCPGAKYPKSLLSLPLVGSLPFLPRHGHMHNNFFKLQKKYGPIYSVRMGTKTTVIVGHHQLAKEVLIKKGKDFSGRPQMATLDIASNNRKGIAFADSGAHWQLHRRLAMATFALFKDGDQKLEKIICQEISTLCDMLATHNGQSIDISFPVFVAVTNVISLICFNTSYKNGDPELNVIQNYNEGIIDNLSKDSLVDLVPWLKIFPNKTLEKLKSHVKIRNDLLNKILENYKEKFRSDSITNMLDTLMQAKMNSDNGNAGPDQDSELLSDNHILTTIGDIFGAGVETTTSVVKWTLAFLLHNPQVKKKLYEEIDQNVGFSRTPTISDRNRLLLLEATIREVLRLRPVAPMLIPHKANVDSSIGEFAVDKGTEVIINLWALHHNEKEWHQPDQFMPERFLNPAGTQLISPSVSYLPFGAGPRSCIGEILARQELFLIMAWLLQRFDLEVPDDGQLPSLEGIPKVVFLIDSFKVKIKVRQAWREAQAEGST

[6] = biological target: Cytochrome P450 2C9 (Homo sapiens, UniProt P11712); test: Inhibition of human recombinant CYP2C9 expressed in insect microsomes; format: ADME, Microsome
[7] = Plasma concentration in Wistar rat plasma at 5 mg/kg, po after 6 hrs; format: ADME, organism-based; parameters: dose 5 mg/kg, route oral
[8] = in vivo; settings: Wistar, rat, plasma, po, 5 mg/kg

Sequence of Cytochrome P450 2C9 (P11712 whole entry): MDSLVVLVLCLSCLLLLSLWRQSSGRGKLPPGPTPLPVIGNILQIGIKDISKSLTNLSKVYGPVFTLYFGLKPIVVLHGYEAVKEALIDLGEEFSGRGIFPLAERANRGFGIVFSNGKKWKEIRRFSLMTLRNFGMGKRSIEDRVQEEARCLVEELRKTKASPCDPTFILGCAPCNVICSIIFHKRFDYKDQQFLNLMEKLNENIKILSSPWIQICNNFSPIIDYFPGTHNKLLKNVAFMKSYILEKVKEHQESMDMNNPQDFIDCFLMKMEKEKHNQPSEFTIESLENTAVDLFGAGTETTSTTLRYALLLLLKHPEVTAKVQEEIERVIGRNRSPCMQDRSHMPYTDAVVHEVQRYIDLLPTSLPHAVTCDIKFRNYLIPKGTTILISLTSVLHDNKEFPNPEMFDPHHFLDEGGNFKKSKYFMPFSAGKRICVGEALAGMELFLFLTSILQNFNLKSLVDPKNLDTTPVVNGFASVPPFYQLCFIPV

Cmax [1]: 81 ng/mL | concentration at 2 h [2]: 55.8 ng/mL | IC50 [3]: 0.6 nM | concentration at 24 h [4]: 1.28 ng/mL | inhibition at 2 µM [5]: 39% | IC50 [6]: 1270 nM | concentration at 6 h [7]: 81.4 ng/mL | AUC(0-inf) [8]: 762 ng·h/mL
Structure (SMILES): COc1ccc2cc(-c3cncc4ccccc34)ccc2c1

Reference: ChEMBL document CHEMBL1156596, “Overcoming undesirable CYP1A2 inhibition of pyridylnaphthalene-type aldosterone synthase inhibitors: influence of heteroaryl derivatization on potency and selectivity” (J Med Chem, 2008)
